System: hippocampal slices from wt and Δ9 mutant (PS-1) animals
Format: cell-based

CN1C(=O)CN=C(c2ccccc2F)c2cc([N+](=O)[O-])ccc21 [flunitrazepam]
difference in potentiation between wt and Δ9 mutation slices post-tetanus: no statistically significant difference between the two groups

AP5
AP5-sensitive potentials during tetanus, difference between wt and Δ9 mutant slices: no statistically significant difference between the two groups
